Experimental data taken from ChEMBL document CHEMBL1201862, “PubChem BioAssay data set” (2004).
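Briefly, cells in 96-well plates were exposed to five compound concentrations for 48 h, and endpoints were estimated by linear interpolation. GI50 = concentration required for 50% inhibition of growth.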 The source made the active and inactive calls. Cut-off read from the data, not from the text of the source: active = GI50 up to about 1.1 µM and inactive = higher.

Legend:
Experiment in all cases: NCI tumour cell line growth inhibition, 48 h
SK-MEL-5 = system: SK-MEL-5
NCI-H23 = system: NCI-H23
SNB-75 = system: SNB-75
NCI-H522 = system: NCI-H522
DLD-1 = system: DLD-1
NCI-H460 = system: NCI-H460
A498 = system: A498
786-0 = system: 786-0
OVCAR-3 = system: OVCAR-3
UO-31 = system: UO-31
U-251 = system: U-251
OVCAR-8 = system: OVCAR-8
SN12C = system: SN12C
CCRF-CEM = system: CCRF-CEM
SNB-19 = system: SNB-19
TK-10 = system: TK-10
M19-MEL = system: M19-MEL
MOLT-4 = system: MOLT-4
HOP-92 = system: HOP-92
HT-29 = system: HT-29
LXFL 529 = system: LXFL 529
CAKI-1 = system: CAKI-1
OVCAR-4 = system: OVCAR-4
K562 = system: K562
KM12 = system: KM12
Malme-3M = system: Malme-3M
LOX IMVI = system: LOX IMVI
OVCAR-5 = system: OVCAR-5
ACHN = system: ACHN
SK-MEL-2 = system: SK-MEL-2
SF-295 = system: SF-295
NCI-H226 = system: NCI-H226
M14 = system: M14
HCC 2998 = system: HCC 2998
HOP-62 = system: HOP-62
SK-MEL-28 = system: SK-MEL-28
KM-20L2 = system: KM-20L2
HCT-15 = system: HCT-15
SF-539 = system: SF-539
UACC-62 = system: UACC-62
DMS-273 = system: DMS-273
UACC-257 = system: UACC-257
IGROV-1 = system: IGROV-1
XF498 = system: XF498
SNB-78 = system: SNB-78
A549 = system: A549
RPMI-8226 = system: RPMI-8226
HCT-116 = system: HCT-116
EKVX = system: EKVX
SK-OV-3 = system: SK-OV-3
HL-60 = system: HL-60
COLO 205 = system: COLO 205
SW-620 = system: SW-620
DMS-114 = system: DMS-114
MDA-MB-231 = system: MDA-MB-231
MDA-MB-435 = system: MDA-MB-435
SR = system: SR
MDA-N = system: MDA-N
HOP-18 = system: HOP-18
T47D = system: T47D
BT-549 = system: BT-549
DU-145 = system: DU-145
PC-3 = system: PC-3
Hs-578T = system: Hs-578T
RXF 393 = system: RXF 393
SF-268 = system: SF-268

Measured: GI50

COc1ccc(C2C(Cl)C(=O)N2NC(=O)c2ccc(N)cc2)cc1 (centres undefined)
> 100 µM: HCT-15
inactive: SK-MEL-5 > 100 µM | NCI-H23 > 100 µM | SNB-75 > 100 µM | NCI-H522 > 100 µM | DLD-1 > 100 µM | NCI-H460 > 100 µM | A498 > 100 µM | 786-0 > 100 µM | OVCAR-3 > 100 µM | UO-31 > 100 µM | U-251 > 100 µM | OVCAR-8 > 100 µM | SN12C > 100 µM | CCRF-CEM 93.5 µM | SNB-19 > 100 µM | TK-10 > 100 µM | M19-MEL > 100 µM | MOLT-4 > 100 µM | HOP-92 > 100 µM | HT-29 > 100 µM | LXFL 529 > 100 µM | CAKI-1 > 100 µM | OVCAR-4 > 100 µM | K562 > 100 µM | KM12 > 100 µM | Malme-3M > 100 µM | LOX IMVI > 100 µM | OVCAR-5 > 100 µM | ACHN > 100 µM | SK-MEL-2 > 100 µM | SF-295 > 100 µM | NCI-H226 > 100 µM | M14 > 100 µM | HCC 2998 > 100 µM | HOP-62 > 100 µM | SK-MEL-28 > 100 µM | KM-20L2 > 100 µM | SF-539 > 100 µM | UACC-62 > 100 µM | DMS-273 > 100 µM | UACC-257 > 100 µM | IGROV-1 > 100 µM | XF498 > 100 µM | SNB-78 > 100 µM | A549 > 100 µM | RPMI-8226 > 100 µM | HCT-116 > 100 µM | EKVX > 100 µM | SK-OV-3 > 100 µM | HL-60 > 100 µM | COLO 205 > 100 µM | SW-620 > 100 µM | DMS-114 > 100 µM

C/C=C(\C)c1cc(=O)c2c(C)cc3c(c2o1)C(=O)c1c(O)c(C2CC(C)(N(C)C)C(O)C(C)O2)cc(C2CC(N(C)C)C(O)C(C)O2)c1C3=O (centres undefined)
inactive: DLD-1 2.31 µM | M19-MEL 3.21 µM | KM-20L2 2.81 µM | DMS-273 1.91 µM | SNB-78 3.87 µM | DMS-114 1.5 µM
active: MDA-MB-231 0.156 µM | MDA-MB-435 0.217 µM | SR 0.267 µM | 786-0 0.13 µM | MDA-N 0.178 µM | HOP-18 0.154 µM | T47D 0.257 µM | TK-10 0.237 µM | HOP-92 0.256 µM | BT-549 0.223 µM | DU-145 0.138 µM | ACHN 0.0789 µM | M14 0.129 µM | PC-3 0.229 µM | XF498 < 0.01 µM | Hs-578T 0.247 µM

Cc1cc(O)nc(NNC(C#N)c2cccc(O)c2)n1 (centres undefined)
inactive: SK-MEL-5 > 100 µM | NCI-H23 > 100 µM | SNB-75 > 100 µM | NCI-H522 > 100 µM | DLD-1 > 100 µM | NCI-H460 > 100 µM | SR > 100 µM | 786-0 > 100 µM | HOP-18 86.7 µM | OVCAR-3 > 100 µM | UO-31 > 100 µM | U-251 > 100 µM | OVCAR-8 > 100 µM | SN12C > 100 µM | RXF 393 > 100 µM | CCRF-CEM > 100 µM | TK-10 > 100 µM | M19-MEL > 100 µM | MOLT-4 > 100 µM | HOP-92 > 100 µM | HT-29 > 100 µM | LXFL 529 > 100 µM | CAKI-1 > 100 µM | OVCAR-4 > 100 µM | K562 > 100 µM | KM12 > 100 µM | Malme-3M 79.1 µM | LOX IMVI > 100 µM | OVCAR-5 > 100 µM | ACHN > 100 µM | SK-MEL-2 > 100 µM | SF-295 > 100 µM | NCI-H226 > 100 µM | M14 > 100 µM | HOP-62 > 100 µM | SK-MEL-28 > 100 µM | SF-268 > 100 µM | KM-20L2 > 100 µM | SF-539 > 100 µM | UACC-62 75.7 µM | DMS-273 > 100 µM | UACC-257 > 100 µM | IGROV-1 > 100 µM | SNB-78 > 100 µM | A549 > 100 µM | RPMI-8226 > 100 µM | HCT-116 > 100 µM | SK-OV-3 > 100 µM | HL-60 > 100 µM | COLO 205 > 100 µM | SW-620 > 100 µM | DMS-114 > 100 µM
> 100 µM: HCT-15
